Data as given in patent US5589568A (priority 1994, dated 1996).
Like-named read-outs stand apart in the source and are kept apart here. Where a SMILES comes first, the peptide text is derived from it. Where no end group is shown, it is not given here. The star is where a group is joined. Dodecyl = CCCCCCCCCCCC*; X1 = CCCCCCCCCCCCCCCC*

Assays:
Gi [1] = test: release of [α-32P]GDP from Gi (GDP exchange); assay type: biochemical, rabbit
Method: FIG. 1. Stimulation of GDP/GTP exchange by analogs of MP. The release of [α-^32 P]GDP from Gi was measured at 30° C. in the presence of the concentrations of several different MP analogs whose structures are listed in Table I: O, Mas7; Δ, Mas8; .tangle-solidup.Mas9; .quadrature., Mas19; .oval-solid., MP; .box-solid., MP-X; .gradient., MAS14; .tangle-soliddn., Mas6. First order dissociation rate constants (kdiss) were determined from duplicate four-point time courses as described under "Experimental Procedures."
Purification of αo and βγ was completed by chromatography on DEAE-Sephacel that was eluted with a gradient of 0-250 mM NaCl in the presence of 0.6% Lubrol and AMF. AMF was removed by chromatography on hydroxyapatite and Sephadex G-25 as described by Sternweis, et al., 1981, incorporated herein by reference. Gi was purified as the αβγ trimer from rabbit liver as reported by Bokoch, et al., 1984, incorporated herein by reference. The Gi used in this study could be recognized on a Western blot by anti-Gi -1 and anti-Gi -3 antibodies but not by anti-Gi -2 antibody, as documented by Mumby, et al., 1983, incorporated herein by reference. Purified recombinant αi,1 was synthesized in E. coli prepared to the specifications of Linder, incorporated herein by reference. During purification, G protein α subunits were assayed by [^35 S] GTPγ S binding according to the method of Higashijima, 1987, incorporated herein by reference). By subunits were assayed according to their ability to deactivate Gs, as detailed by Northup, 1983, incorporated herein by reference.
G proteins were reconstituted into phospholipid vesicles composed of dioleoyl-PC/bovine brain PS/1-palmitoyl,2-oleoyl-PE (3:4:3) as reported previously by Higashijima et al., 1988, incorporated herein by reference.
To measure the MP-catalyzed dissociation of [α-^32 P]GDP or [^35 S]-GTPγS, labeled nucleotide was first bound to G protein (approximately […] in 50 μl) by incubation of the Lubrol-solubilized G protein with a molar excess of nucleotide in assay buffer that contained 10 mM MgSO4 and 0.1% Lubrol. Incubation was for 20 min at 20° C. (for Go) or for 30 min at 30° C. (for Gi), In the case of [α-^32 P]GDP, EDTA was then added to 12 mM. […] Bound nucleotide was determined by binding to nitrocellulose filters as described (Ferguson, 1986), and incorporated herein by reference. […] Data were analyzed using a nonlinear least squares fitting program.

Go = target: T1, Go (Bos taurus, UniProt P08239); test: steady state GTPase activity of Go in phospholipid vesicles; assay type: biochemical, bovine; conditions: for Go ef. (apparent efficacy, maximum turnover number of GTPase activity): Table VI, receptor-based peptides; for Goo ef. (apparent efficacy, maximum turnover number of GTPase activity): Table IV; for GTPase Go 100 μM: 100 μM peptide
T1 construct: proteins were extracted from bovine cerebral cortical membranes; from tissue; host or cells: bovine brain (cerebral cortical membranes)
T1 sequence (P08239 2-354 limits assumed): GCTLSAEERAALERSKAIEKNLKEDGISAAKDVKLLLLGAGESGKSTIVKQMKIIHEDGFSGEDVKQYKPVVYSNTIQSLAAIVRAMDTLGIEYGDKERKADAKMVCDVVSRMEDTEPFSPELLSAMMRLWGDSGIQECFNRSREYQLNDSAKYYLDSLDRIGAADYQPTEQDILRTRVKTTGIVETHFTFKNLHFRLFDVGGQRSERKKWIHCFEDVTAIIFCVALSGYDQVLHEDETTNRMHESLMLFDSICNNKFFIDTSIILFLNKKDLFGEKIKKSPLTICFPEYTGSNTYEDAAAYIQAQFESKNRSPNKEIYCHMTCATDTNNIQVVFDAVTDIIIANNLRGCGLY
T1 sequence (P62871 2-340 partner limits assumed): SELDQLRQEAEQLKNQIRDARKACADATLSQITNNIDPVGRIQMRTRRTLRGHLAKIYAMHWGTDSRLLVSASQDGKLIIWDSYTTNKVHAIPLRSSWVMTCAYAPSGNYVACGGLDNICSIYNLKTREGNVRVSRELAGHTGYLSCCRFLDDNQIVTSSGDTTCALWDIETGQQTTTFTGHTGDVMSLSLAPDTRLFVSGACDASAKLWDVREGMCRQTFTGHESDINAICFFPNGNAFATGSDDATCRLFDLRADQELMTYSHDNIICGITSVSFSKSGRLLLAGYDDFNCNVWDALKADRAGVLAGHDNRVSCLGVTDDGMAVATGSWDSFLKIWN
T1 sequence (P63212 2-68 partner limits assumed): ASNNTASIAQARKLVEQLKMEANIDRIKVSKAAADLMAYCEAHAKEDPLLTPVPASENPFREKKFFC

Gi [2] = test: steady state GTPase activity of Gi in phospholipid vesicles; assay type: biochemical, rabbit; conditions: for GTPase Gi 100 μM: 100 μM peptide, PE/PC/PS vesicles;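 on all read-outs here: Steady-state GTP hydrolysis by Gi measured in a detergent-free buffer containing 1.1 mM MgSO4 plus the specified guanine nucleotide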
Method: The concentration of free Mg^2+ in assay medium that contains 5 mM EDTA and no added Mg^2+ is estimated to be 0.1-0.2 nM according to Brandt et al., 1988 and 1983.

[3] = critical micelle concentration; assay type: physicochemical
From the text: MP was synthesized and purified as described by Saito and his colleagues (Chem. Pharm. Bull., 32:2187-2193, 1984, incorporated herein by reference). The MP analogs listed in Table I were synthesized by standard solid phase methods and purified by C-4 HPLC using an acetonitrile gradient in 0.1% trifluoroacetic acid. […] The identity of the peptides was monitored by 400-MHz or 250-Mhz ^1 H NMR spectroscopy for MP and MP-X and by mass spectroscopy for the other analogs. […] BAC was purchased from Sigma, and other alkylammonium compounds were from Aldrich. The critical micelle concentration of BAC was measured in the buffer used for GTPase assays (see below) using 1,6-diphenyl-1,3,5-hexatriene according to the method of Schrock and Gennis, (J. Biol. Chem, 252:5990-5995, 1977, incorporated herein by reference). The critical micelle concentration was approximately 20 μM.

Gs = Gs (Homo sapiens, UniProt P63092); test: steady state GTPase activity of Gs; assay type: biochemical
Sequence of Gs (P63092 whole entry): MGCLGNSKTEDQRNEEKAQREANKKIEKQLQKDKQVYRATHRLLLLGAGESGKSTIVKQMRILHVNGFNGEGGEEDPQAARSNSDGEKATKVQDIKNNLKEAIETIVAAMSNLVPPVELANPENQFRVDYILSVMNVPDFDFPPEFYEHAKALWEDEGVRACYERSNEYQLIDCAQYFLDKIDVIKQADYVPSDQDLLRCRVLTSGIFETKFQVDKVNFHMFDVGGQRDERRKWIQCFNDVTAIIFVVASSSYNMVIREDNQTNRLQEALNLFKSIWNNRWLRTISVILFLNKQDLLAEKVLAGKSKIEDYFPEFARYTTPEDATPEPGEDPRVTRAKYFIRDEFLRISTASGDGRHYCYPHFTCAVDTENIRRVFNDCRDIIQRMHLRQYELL
Method: Methods for the assay of steady state GTP hydrolysis and GTPγS binding have been described previously by Higashijima, 1987, and Ferguson, 1986, and incorporated herein by reference. Unless noted otherwise, assays of steady state GTP hydrolysis and of the binding and dissociation of guanine nucleotides were carried out in the buffer described previously, but without detergent and with 1.1 mM MgSO4 and the nucleotide specified in the text. When necessary, the concentration of free Mg^2+ was adjusted using EDTA buffers as described previously by Higashijima, 1987, and incorporated herein by reference.
The data set forth in the following tables represent data generated by the inventors employing the steady state GTP hydrolysis, expressed as molar turnover numbers, are described herein under the "Assay" section of the Experimental Procedures in Example 1. The data has been classified according to the criteria outlined below and the effects of each peptide and modified variant on Go, Gi, and Gs have been tabulated. Table III below sets forth data generated for various mastoparan analogues designed by the inventors, in comparison with the various naturally-occurring mastoparans (e.g., MP, MP-A and MP-T). Table IV sets forth similar data generated for various receptor-based peptides designed by the inventors based on a consideration of various G-protein linked receptors.
Apparent affinity (af.) and apparent efficacy (ef.) were estimated by EC50 and maximum turnover number of GTPase activity.

[4] = Table VI, receptor-based peptides
[5] = Table VI, receptor-based peptides, read-out: Gi af. (apparent affinity, estimated by EC50 of GTPase activity)
[6] = Table IV, read-out: G1 af. (apparent affinity, estimated by EC50 of GTPase activity)
[7] = 15 min at 20° C., PE/PC/PS vesicles

Compound: CCCCCCCCCCCCC[N+](C)(C)Cc1ccccc1 [BAC (C-12), benzalkonium chloride]
- BAC concentration range in which the EC50 for Mas7 increased sharply (Gi [1]; Gi, FIG. 4B): 1 to 3 µg/mL
- inhibition of Mas7-stimulated GDP exchange on Gi (Gi [1]; intermediate concentrations of Mas7): ≤ 60%
- effect on basal GDP exchange rate of Gi (Gi [1]; no Mas7): no detectable inhibition
- Turnover number Go 10 μg/ml (Go; 10 μg/ml amine, 15 min at 20° C., PE/PC/PS vesicles): 0.33 min⁻¹
- Turnover number Go 100 μg/ml (Go; 100 μg/ml amine, 15 min at 20° C.): 0.8 min⁻¹
- maximal stimulation of Go (Go; at about 30 μg/ml (~0.1 mM) BAC, FIG. 5): 20 fold
- effect on stimulation of Gi GTPase activity by Mas7 and MP (Gi [2]; 3 μg/ml BAC, 10 μM Mas7 (FIG. 3)): antagonized
- Turnover number Gi 10 μg/ml (Gi [2]; 10 μg/ml amine, 30 min at 30° C.): 0.08 min⁻¹
- Turnover number Gi 100 μg/ml (Gi [2]; 100 μg/ml amine, 30 min at 30° C.): 0.04 min⁻¹
- critical micelle concentration ([3]; as restated): 20 µg/mL
- critical micelle concentration ([3]; buffer used for GTPase assays, 1,6-diphenyl-1,3,5-hexatriene): approximately 20 μM

Compound: CCCCCCCCCCCCSC[C@H](N)C(=O)N1CCC[C@H]1C(=O)N[C@@H](Cc1ccccc1)C(=O)N[C@@H](CCCNC(=N)N)C(=O)N[C@@H](Cc1ccc(O)cc1)C(=O)N[C@@H](CCC(N)=O)C(=O)N[C@@H](CO)C(=O)N[C@@H](CC(C)C)C(=O)N[C@@H](CCSC)C(=O)N[C@H](C(=O)N[C@@H](CCCNC(=N)N)C(=O)N[C@@H](C)C(=O)N[C@@H](CCCNC(=N)N)C(=O)N[C@@H](C)C(=O)N[C@@H](CCCCN)C(=O)N[C@H](C(=O)N[C@H](C(N)=O)[C@@H](C)CC)C(C)C)[C@@H](C)O [C12-ER39] (H-C(Dodecyl)PFRYQSLMTRARAKVI-NH2; N-terminus assumed)
- Go ef. (apparent efficacy, maximum turnover number of GTPase activity) (Go): G (Good (G): 5-10 fold)
- Gi ef. (apparent efficacy, maximum turnover number of GTPase activity) (Gi [2]; [4]): G (Good (G): 5-10 fold)
- EC50 (Gi [2]; [5]): 3 to 10 µM
- Gs ef. (apparent efficacy, maximum turnover number of GTPase activity) (Gs; [4]): F (Fair (F): 2-5 fold)

Compound: CCCCCCCCCCCCCCCCSC[C@H](NC(=O)[C@H](CC(C)C)NC(=O)[C@H](C)NC(=O)[C@H](CCCCN)NC(=O)[C@H](C)NC(=O)[C@H](CC(C)C)NC(=O)[C@H](C)NC(=O)[C@H](C)NC(=O)[C@H](CC(C)C)NC(=O)[C@H](C)NC(=O)[C@H](CCCCN)NC(=O)[C@H](Cc1ccc(O)cc1)NC(=O)[C@H](CC(N)=O)NC(=O)[C@@H](N)[C@@H](C)CC)C(N)=O [C16-ER17] (H-INYKALAALAKALC(X1)-NH2; N-terminus assumed)
- Goo ef. (apparent efficacy, maximum turnover number of GTPase activity) (Go): E (Excellent (E): 30-10 fold)
- G1 ef. (apparent efficacy, maximum turnover number of GTPase activity) (Gi [2]; Table IV): E (Excellent (E): 30-10 fold)
- EC50 (Gi [2]; [6]): < 3 µM
- Gs ef. (apparent efficacy, maximum turnover number of GTPase activity) (Gs; Table IV): F (Fair (F): 2-5 fold)

Compound: CC[C@H](C)[C@H](NC(=O)[C@H](CCCNC(=N)N)NC(=O)[C@H](Cc1ccc(O)cc1)NC(=O)[C@H](CC(C)C)NC(=O)[C@H](CC(C)C)NC(=O)[C@H](CC(C)C)NC(=O)[C@@H](NC(=O)[C@H](CC(C)C)NC(=O)[C@@H](NC(=O)[C@H](CC(C)C)NC(=O)[C@H](CC(C)C)NC(=O)[C@@H](NC(=O)[C@H](C)NC(=O)[C@@H](NC(=O)[C@H](CC(C)C)NC(C)=O)[C@@H](C)O)C(C)C)[C@@H](C)O)[C@@H](C)O)C(=O)N[C@@H](CC(N)=O)C(=O)N[C@@H](CC(C)C)C(=O)N[C@@H](CCCCN)C(=O)N[C@@H](C)C(=O)N[C@@H](CC(C)C)C(=O)N[C@@H](C)C(=O)N[C@@H](C)C(=O)N[C@@H](CC(C)C)C(=O)N[C@@H](C)C(=O)N[C@@H](CCCCN)C(=O)N[C@@H](C)C(=O)N[C@@H](CC(C)C)C(=O)N[C@@H](CC(C)C)C(N)=O [ER26]
- Goo ef. (apparent efficacy, maximum turnover number of GTPase activity) (Go): F (Fair (F): 2-5 fold)
- G1 ef. (apparent efficacy, maximum turnover number of GTPase activity) (Gi [2]; Table IV): G (Good (G): 5-10 fold)
- EC50 (Gi [2]; [6]): 3 to 10 µM
- Gs ef. (apparent efficacy, maximum turnover number of GTPase activity) (Gs; Table IV): F (Fair (F): 2-5 fold)

Compound: CPFRYQSLNTRARAKVI-NH2 [ER39]
- Go ef. (apparent efficacy, maximum turnover number of GTPase activity) (Go): F (Fair (F): 2-5 fold)
- Gi ef. (apparent efficacy, maximum turnover number of GTPase activity) (Gi [2]; [4]): P (Poor (P): less than 2 fold)
- EC50 (Gi [2]; [5]): > 100 µM
- Gs ef. (apparent efficacy, maximum turnover number of GTPase activity) (Gs; [4]): F (Fair (F): 2-5 fold)

Compound: luteinizing hormone releasing hormone [LHRH, reference compound]
- GTPase Go 100 μM (Go; [7]): 0.04 min⁻¹
- GTPase Gi 100 μM (Gi [2]; 30 min at 30° C.): 0.03 min⁻¹

Compound: α-Mating factor [reference compound]
- GTPase Go 100 μM (Go; [7]): 0.19 min⁻¹
- stimulation of GTPase activity (Go; at higher concentrations, G protein not named in the sentence (Gi and Go tested)): more than 3 fold
- GTPase Gi 100 μM (Gi [2]; 30 min at 30° C.): 0.05 min⁻¹
